Measurements taken from patent US20250230193A1, “CYCLIC COMPOUND HAVING SELECTIVE KRAS INHIBITORY EFFECT ON HRAS AND NRAS” (CHUGAI SEIYAKU KABUSHIKI KAISHA, priority 2022, published 2025).

Legend:
[1] = biological target: GDP-bound HRAS wild-type protein (Homo sapiens, UniProt P01112); test: Binding to HRAS by surface plasmon resonance (SPR), Single Cycle Kinetics; details: KD ratio HRAS/KRAS, SPR, GDP-bound wild-type proteins
[2] = biological target: GDP-bound NRAS wild-type protein (Homo sapiens, UniProt P01111); test: Binding to NRAS by surface plasmon resonance (SPR), Single Cycle Kinetics; details: KD ratio NRAS/KRAS, SPR, GDP-bound wild-type proteins
GDP-bound NRAS wild-type protein, sequence (P01111 whole entry): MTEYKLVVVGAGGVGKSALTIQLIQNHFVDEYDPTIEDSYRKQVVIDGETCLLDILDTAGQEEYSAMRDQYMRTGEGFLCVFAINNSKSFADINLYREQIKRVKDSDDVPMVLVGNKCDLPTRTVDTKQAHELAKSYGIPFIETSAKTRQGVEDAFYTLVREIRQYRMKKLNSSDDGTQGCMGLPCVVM

GDP-bound HRAS wild-type protein, sequence (P01112 whole entry): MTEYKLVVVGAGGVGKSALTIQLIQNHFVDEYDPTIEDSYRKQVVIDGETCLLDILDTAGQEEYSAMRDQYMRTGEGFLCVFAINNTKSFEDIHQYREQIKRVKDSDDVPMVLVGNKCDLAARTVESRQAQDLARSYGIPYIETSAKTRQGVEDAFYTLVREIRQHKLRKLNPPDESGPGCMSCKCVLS

| SMILES | HRAS/KRAS (ratio of KD value with respect to GDP-bound HRAS wild-type protein to KD value with respect to KRAS) [1] | NRAS/KRAS (ratio of KD value with respect to GDP-bound NRAS wild-type protein to KD value with respect to KRAS) [2] |
| --- | --- | --- |
| CCC[C@H]1C(=O)N[C@@H]([C@@H](C)CC)C(=O)N(C)CC(=O)N(C)[C@H]2C/C=C\CCN(C2=O)[C@@H](Cc2ccc(C(F)(F)F)cc2)C(=O)N(C)CC(=O)N[C@@H](CCc2ccc(C(F)(F)F)c(Cl)c2)C(=O)N2CC3(CC3)C[C@H]2C(=O)NC2(CC(C)(C)C2)C(=O)N(C)[C@@H](CC(C)(C)C)C(=O)N(C)[C@H](C(=O)N(C)C)CC(=O)N1C [PP2979] | B (a compound having 3 or more and less than 10 is denoted as B) | A (a compound having 10 or more and less than 20 is denoted as A) |
| C#CC[C@H]1C(=O)N[C@@H]([C@@H](C)CC)C(=O)N(C)CC(=O)N(C)[C@H]2C/C=C\CCN(C2=O)[C@@H](Cc2ccc(C(F)(F)F)cc2)C(=O)N(C)CC(=O)N[C@@H](CCc2ccc(C(F)(F)F)c(Cl)c2)C(=O)N2CC3(CC3)C[C@H]2C(=O)NC2(CC(C)(C)C2)C(=O)N(C)[C@@H](C2CCCC2)C(=O)N(C)[C@H](C(=O)N(C)C)CC(=O)N1C [PP2980] | B (a compound having 3 or more and less than 10 is denoted as B) | A (a compound having 10 or more and less than 20 is denoted as A) |
| CCC[C@H]1C(=O)N[C@@H](C2CCCC2)C(=O)N(C)CC(=O)N(C)[C@H]2C/C=C\CCN(C2=O)[C@@H](Cc2ccc(C(F)(F)F)cc2)C(=O)N(C)CC(=O)N[C@@H](CCc2ccc(C(F)(F)F)c(Cl)c2)C(=O)N2CC3(CC3)C[C@H]2C(=O)NC2(CC(C)(C)C2)C(=O)N(C)[C@@H](CC(C)(C)C)C(=O)N(C)[C@H](C(=O)N(C)C)CC(=O)N1C [PP2981] | A (a compound having 10 or more and less than 20 is denoted as A) | AA (a compound having 20 or more is denoted as AA) |
| C#CC[C@H]1C(=O)N[C@@H]([C@@H](C)CC)C(=O)N(C)CC(=O)N(C)[C@H]2C/C=C\CCN(C2=O)[C@@H](Cc2ccc(C)cc2)C(=O)N(C)CC(=O)N[C@@H](CCc2ccc(C(F)(F)F)c(Cl)c2)C(=O)N2CC3(CC3)C[C@H]2C(=O)NC2(CC(C)(C)C2)C(=O)N(C)[C@@H](C2CCCC2)C(=O)N(C)[C@H](C(=O)N(C)C)CC(=O)N1C [PP2982] | A (a compound having 10 or more and less than 20 is denoted as A) | A (a compound having 10 or more and less than 20 is denoted as A) |
| CCC[C@H]1C(=O)N[C@@H]([C@@H](C)CC)C(=O)N(C)CC(=O)N(C)[C@H]2C/C=C\CCN(C2=O)[C@@H](Cc2ccc(C(F)(F)F)cc2)C(=O)N(C)CC(=O)N[C@@H](CCc2ccc(C(F)(F)F)c(Cl)c2)C(=O)N2CC3(CC3)C[C@H]2C(=O)NC2(CC(C)(C)C2)C(=O)N(C)[C@@H]([C@@H](C)CC)C(=O)N(C)[C@H](C(=O)N(C)C)CC(=O)N1C [PP2983] | A (a compound having 10 or more and less than 20 is denoted as A) | AA (a compound having 20 or more is denoted as AA) |
| CCC[C@H]1C(=O)N[C@@H](C2CCCC2)C(=O)N(C)CC(=O)N(C)[C@H]2C/C=C\CCN(C2=O)[C@@H](Cc2ccc(C(F)(F)F)cc2)C(=O)N(C)CC(=O)N[C@@H](CCc2ccc(C(F)(F)F)c(Cl)c2)C(=O)N2C[C@H](OCC)C[C@H]2C(=O)NC2(CC(C)(C)C2)C(=O)N(C)[C@@H](C2CCCC2)C(=O)N(C)[C@H](C(=O)N(C)C)CC(=O)N1C [PP2984] | B (a compound having 3 or more and less than 10 is denoted as B) | A (a compound having 10 or more and less than 20 is denoted as A) |
| CCC[C@H]1C(=O)N[C@@H]([C@@H](C)CC)C(=O)N(C)CC(=O)N(C)[C@H]2C/C=C\CCN(C2=O)[C@@H](Cc2ccc(C(F)(F)F)cc2)C(=O)N(C)CC(=O)N[C@@H](CCc2ccc(C(F)(F)F)c(Cl)c2)C(=O)N2CC3(CC3)C[C@H]2C(=O)NC2(CC(C)(C)C2)C(=O)N(C)[C@@H](CC(F)(F)F)C(=O)N(C)[C@H](C(=O)N(C)C)CC(=O)N1C [PP2985] | A (a compound having 10 or more and less than 20 is denoted as A) | AA (a compound having 20 or more is denoted as AA) |
| CCC[C@H]1C(=O)N[C@@H](C2CCCC2)C(=O)N(C)CC(=O)N(C)[C@H]2C/C=C\CCN(C2=O)[C@@H](Cc2ccc(C(F)(F)F)cc2)C(=O)N(C)CC(=O)N[C@@H](CCc2ccc(C(F)(F)F)c(Cl)c2)C(=O)N2CC3(CC3)C[C@H]2C(=O)NC2(CC(C)(C)C2)C(=O)N(C)[C@@H](C2CCCC2)C(=O)N(C)[C@H](C(=O)N(C)C)CC(=O)N1C [PP2986] | A (a compound having 10 or more and less than 20 is denoted as A) | AA (a compound having 20 or more is denoted as AA) |
| CCC[C@H]1C(=O)N[C@@H]([C@@H](C)CC)C(=O)N(C)CC(=O)N(C)[C@H]2C/C=C\CCN(C2=O)[C@@H](Cc2ccc(C(F)(F)F)cc2)C(=O)N(C)CC(=O)N[C@@H](CCc2ccc(C(F)(F)F)c(Cl)c2)C(=O)N2CC3(CC3)C[C@H]2C(=O)NC2(CC(C)(C)C2)C(=O)N(C)[C@@H](CC(C)C)C(=O)N(C)[C@H](C(=O)N(C)C)CC(=O)N1C [PP2987] | A (a compound having 10 or more and less than 20 is denoted as A) | AA (a compound having 20 or more is denoted as AA) |
| CCC[C@H]1C(=O)N[C@@H](C2CCCC2)C(=O)N(C)CC(=O)N(C)[C@H]2C/C=C\CCN(C2=O)[C@@H](Cc2ccc(C)cc2)C(=O)N(C)CC(=O)N[C@@H](CCc2cc(F)c(C(F)(F)F)c(F)c2)C(=O)N2C[C@H](OCC)C[C@H]2C(=O)NC2(CC(C)(C)C2)C(=O)N(C)[C@@H](C2CCCC2)C(=O)N(C)[C@H](C(=O)N(C)C)CC(=O)N1C [PP2988] | B (a compound having 3 or more and less than 10 is denoted as B) | B (a compound having 3 or more and less than 10 is denoted as B) |
| CCC[C@H]1C(=O)N[C@@H](C2CCCC2)C(=O)N(C)CC(=O)N(C)[C@H]2C/C=C\CCN(C2=O)[C@@H](Cc2ccc(C)cc2)C(=O)N(C)CC(=O)N[C@@H](CCc2cc(F)c(C(F)(F)F)c(F)c2)C(=O)N2C[C@H](OCC)C[C@H]2C(=O)NC2(CC(C)(C)C2)C(=O)N(C)[C@@H](CC(C)(C)C)C(=O)N(C)[C@H](C(=O)N(C)C)CC(=O)N1C [PP2989] | A (a compound having 10 or more and less than 20 is denoted as A) | AA (a compound having 20 or more is denoted as AA) |
| CCC[C@H]1C(=O)N[C@@H](C2CCCC2)C(=O)N(C)CC(=O)N(C)[C@H]2C/C=C\CCN(C2=O)[C@@H](Cc2ccc(C)cc2)C(=O)N(C)CC(=O)N[C@@H](CCc2ccc(C(F)(F)F)c(OC)c2)C(=O)N2C[C@H](OCC)C[C@H]2C(=O)NC2(CC(C)(C)C2)C(=O)N(C)[C@@H](C2CCCC2)C(=O)N(C)[C@H](C(=O)N(C)C)CC(=O)N1C [PP2992] | A (a compound having 10 or more and less than 20 is denoted as A) | AA (a compound having 20 or more is denoted as AA) |
| CCC[C@H]1C(=O)N[C@@H]([C@@H](C)CC)C(=O)N(C)CC(=O)N(C)[C@H]2C/C=C\CCN(C2=O)[C@@H](Cc2ccc(C)cc2)C(=O)N(C)CC(=O)N[C@@H](CCc2cc(F)c(C(F)(F)F)c(F)c2)C(=O)N2C[C@H](OCC)C[C@H]2C(=O)NC2(CC(C)(C)C2)C(=O)N(C)[C@@H](CC(F)(F)F)C(=O)N(C)[C@H](C(=O)N(C)C)CC(=O)N1C [PP2993] | A (a compound having 10 or more and less than 20 is denoted as A) | A (a compound having 10 or more and less than 20 is denoted as A) |
| CCC[C@H]1C(=O)N[C@@H](C2CCCC2)C(=O)N(C)CC(=O)N(C)[C@H]2C/C=C\CCN(C2=O)[C@@H](Cc2ccc(C)cc2)C(=O)N(C)CC(=O)N[C@@H](CCc2ccc(C(F)(F)F)c(OC)c2)C(=O)N2CC3(CC3)C[C@H]2C(=O)NC2(CC(C)(C)C2)C(=O)N(C)[C@@H](C2CCCC2)C(=O)N(C)[C@H](C(=O)N(C)C)CC(=O)N1C [PP2994] | A (a compound having 10 or more and less than 20 is denoted as A) | AA (a compound having 20 or more is denoted as AA) |
| CCC[C@H]1C(=O)N[C@@H]([C@@H](C)CC)C(=O)N(C)CC(=O)N(C)[C@H]2C/C=C\CCN(C2=O)[C@@H](Cc2ccc(C)cc2)C(=O)N(C)CC(=O)N[C@@H](CCc2cc(F)c(C(F)(F)F)c(F)c2)C(=O)N2C[C@H](OCC)C[C@H]2C(=O)NC2(CC(C)(C)C2)C(=O)N(C)[C@@H](CC(C)C)C(=O)N(C)[C@H](C(=O)N(C)C)CC(=O)N1C [PP2995] | A (a compound having 10 or more and less than 20 is denoted as A) | A (a compound having 10 or more and less than 20 is denoted as A) |
| CCC[C@H]1C(=O)N[C@@H](C2CCCCC2)C(=O)N(C)CC(=O)N(C)[C@H]2C/C=C\CCN(C2=O)[C@@H](Cc2ccc(C(F)(F)F)cc2)C(=O)N(C)CC(=O)N[C@@H](CCc2ccc(C(F)(F)F)c(Cl)c2)C(=O)N2C[C@H](OCC)C[C@H]2C(=O)NC2(CC(C)(C)C2)C(=O)N(C)[C@@H](C2CCCC2)C(=O)N(C)[C@H](C(=O)N(C)C)CC(=O)N1C [PP2996] | A (a compound having 10 or more and less than 20 is denoted as A) | AA (a compound having 20 or more is denoted as AA) |
